How the values were obtained:
bCA-II [1] = biological target: T1, bCA-II (Bos taurus, UniProt P00921); assay: In vitro carbonic anhydrase inhibition assay (p-NPA, spectrophotometric), bCA-II; assay type: biochemical, bovine; conditions: for IC50 / bCA-II IC50 ± S.E.M.: bovine CA-II, substrate p-NPA, 15 min at 25°C, triplicate; for IC50: read-out: bCA-II IC50 ± S.E.M.
Procedure: Total assay volume comprises 140 µl of HEPES-Tris buffer, 20 µl of bCA-II solution (0.1 mg/ml HEPES-Tris buffer), 20 µl of the test compound (prepared in DMSO), and 20 µl p-NPA (0.7 mM, methanol). First, the test compound and enzyme were incubated for 15 min at 25°C; after incubation, in quick sequence, substrate was added to each experiment in 96-well plates, which were placed in the ^xMARK microplate spectrophotometer (Bio-Rad, United States), and the absorbance was set to 400 nm with 1 min interval time. The activity of the controlled compound was taken as 100%.

hCA-II [2] = biological target: T2, hCA-II (Homo sapiens, UniProt P00918); assay: In vitro carbonic anhydrase inhibition assay (p-NPA, spectrophotometric), hCA-II; assay type: biochemical; conditions: for hCA-II IC50 ± S.E.M. / IC50: human CA-II, substrate p-NPA, triplicate; for IC50: read-out: hCA-II IC50 ± S.E.M.; for Selectivity for hCA-II: hCA-II versus bCA-II
bCA-II [3] = biological target: T1, bCA-II; assay: Kinetics study against bCA-II; assay type: biochemical, bovine; conditions: for Kmapp: Michaelis–Menten constant in the presence of inhibitor; for Vmaxapp: maximum velocity in the presence of inhibitor; for Ki: read-out: Ki ± SEM
Procedure: (§1) Soon after the incubation, various concentrations of substrate were added to the reaction medium (01–0.8 mM). The enzyme activity was measured under steady-state conditions by observing changes in absorbance for 30 min at 400 nm on the microtiter plate reader (Bio-Rad X-Mark^Tm molecular spectrometer, United States). The results were analyzed and processed by Grafit 7 software (Erithacus Software Limited, United Kingdom). Different kinetic parameters of enzymes (e.g., Vmax, Km, Vmaxapp, and Kmapp) and values of correlation coefficients, intercepts, slopes, and their standard error mean were calculated by the linear regression graph by Grafit 7. Linear regression analysis was used to calculate the “best fit” line or curve through a dataset by minimizing the deviation of the data from the curve.

hCA-II [4] = biological target: T2, hCA-II; assay: Kinetics study against hCA-II; assay type: biochemical; conditions: for Kmapp: Michaelis–Menten constant in the presence of inhibitor; for Vmaxapp: maximum velocity in the presence of inhibitor; for Ki: read-out: Ki ± SEM
Procedure: as §1

T1 sequence (P00921 whole entry): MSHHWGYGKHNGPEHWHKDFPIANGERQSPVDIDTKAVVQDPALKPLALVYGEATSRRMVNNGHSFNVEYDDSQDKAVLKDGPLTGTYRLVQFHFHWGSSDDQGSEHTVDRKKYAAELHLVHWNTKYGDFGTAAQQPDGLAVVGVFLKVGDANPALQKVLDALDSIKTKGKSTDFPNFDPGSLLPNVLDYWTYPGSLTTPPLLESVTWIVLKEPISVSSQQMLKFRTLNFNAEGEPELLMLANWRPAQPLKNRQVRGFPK

Row | IC50 (bCA-II [1]) [µM] | hCA-II IC50 ± S.E.M. (hCA-II [2]) | IC50 (hCA-II [2]) [µM] | bCA-II IC50 ± S.E.M. (bCA-II [1]) | further results | SMILES
1 | 28.8 ± 0.4 | Inactive |  |  |  | COc1cc(-c2ccc(F)cc2)ccc1O[C@H](C)Cn1cc(-c2ccc(C(F)(F)F)cc2)nn1 [Compound 9d]
2 | 22.4 ± 0.4 |  | 23 ± 0.3 |  |  | COc1cc(-c2ccc(C=O)cc2)ccc1O[C@H](C)Cn1cc(-c2ccc(F)cc2)nn1 [Compound 9n]
3 | 29 ± 1 | Inactive |  |  | Selectivity for bCA-II (bCA-II [1]; bCA-II versus hCA-II): selective inhibitors of bCA-II | COc1cc(-c2ccc(C(C)=O)cc2)ccc1O[C@H](C)Cn1cc(-c2ccc(F)cc2)nn1 [Compound 9r]
4 | 16.4 ± 0.4 | Inactive |  |  |  | COc1cc(-c2ccc(C)cc2)ccc1O[C@H](C)Cn1cc(-c2ccc(F)cc2)nn1 [Compound 9g]
5 | 88.4 ± 0.3 | Inactive |  |  |  | COc1cc(-c2ccccc2)ccc1O[C@H](C)Cn1cc(-c2ccc(F)cc2)nn1 [Compound 9f]
6 |  |  | 21.3 ± 0.8 | Inactive | Selectivity for hCA-II (hCA-II [2]): selective inhibitors of the hCA-II | COc1cc(-c2ccc(C#N)cc2)ccc1O[C@H](C)Cn1cc(-c2ccc(F)cc2)nn1 [Compound 9k]
7 | 39.1 ± 0.3 |  | 22.4 ± 0.4 |  |  | COc1ccc(-c2ccc(O[C@H](C)Cn3cc(-c4ccc(C(F)(F)F)cc4)nn3)c(OC)c2)cc1 [Compound 9b]
8 |  |  | 12.5 ± 0.6 | Inactive | Selectivity for hCA-II (hCA-II [2]): selective inhibitors of the hCA-II | COc1cc(-c2ccccc2C(F)(F)F)ccc1O[C@H](C)Cn1cc(-c2ccc(C(F)(F)F)cc2)nn1 [Compound 9c]
9 | 41 ± 0.4 |  | 27.4 ± 0.9 |  |  | COc1cc(-c2cc(C(F)(F)F)cc(C(F)(F)F)c2)ccc1O[C@H](C)Cn1cc(-c2ccc(F)cc2)nn1 [Compound 9m]
10 | 25.7 ± 0.2 |  | 21 ± 1 |  |  | COc1cc(-c2ccc(C)cc2)ccc1O[C@H](C)Cn1cc(-c2ccc(C(F)(F)F)cc2)nn1 [Compound 9a]
11 | 12.9 ± 1 | Inactive |  |  |  | COc1ccc(-c2ccc(O[C@H](C)Cn3cc(-c4ccc(F)cc4)nn3)c(OC)c2)cc1 [Compound 9h]
12 | 11.1 ± 0.2 |  | 10.9 ± 1 |  | Type of inhibition (bCA-II [3]): competitive inhibition; Kmapp (bCA-II [3]): 5.6 mM; Vmaxapp (bCA-II [3]): 23.2 (µmol/min)^−1; Ki (bCA-II [3]): 9.4 ± 0.3 µM; Type of inhibition (hCA-II [4]): competitive inhibition; Kmapp (hCA-II [4]): 3.9 mM; Vmaxapp (hCA-II [4]): 26.1 (µmol/min)^−1; Ki (hCA-II [4]): 8.1 ± 0.04 µM | COc1cc(-c2ccc([N+](=O)[O-])cc2)ccc1O[C@H](C)Cn1cc(-c2ccc(F)cc2)nn1 [Compound 9i]
13 |  | Inactive |  | Inactive |  | COc1cc(-c2ccc(F)cc2)ccc1O[C@H](C)Cn1cc(-c2ccc(F)cc2)nn1 [Compound 9l]
14 | 21.4 ± 0.1 |  | 35.3 ± 0.6 |  |  | COc1cc(Br)ccc1O[C@H](C)Cn1cc(-c2ccccc2)nn1 [Compound 7a]
15 |  | Inactive |  | Inactive |  | COc1cc(-c2ccc3ccccc3c2)ccc1O[C@H](C)Cn1cc(-c2ccc(F)cc2)nn1 [Compound 9q]
16 |  |  | 18.5 ± 0.4 | Inactive |  | COc1cc(-c2ccc(Cl)cc2)ccc1O[C@H](C)Cn1cc(-c2ccc(F)cc2)nn1 [Compound 9j]
17 | 20.4 ± 0.3 |  | 22.8 ± 0.2 |  |  | COc1cc(Br)ccc1O[C@H](C)Cn1cc(-c2ccc(F)cc2)nn1 [Compound 7c]
18 | 20.6 ± 0.3 |  | 45.1 ± 0.5 |  |  | COc1cc(Br)ccc1O[C@H](C)Cn1cc(-c2ccc(C(F)(F)F)cc2)nn1 [Compound 7b]
19 |  | Inactive |  | Inactive |  | COc1cc(-c2cc3ccccc3s2)ccc1O[C@H](C)Cn1cc(-c2ccc(F)cc2)nn1 [Compound 9s]
20 | 14.1 ± 0.2 |  | 13.6 ± 1 |  | Type of inhibition (bCA-II [3]): competitive inhibition; Kmapp (bCA-II [3]): 4.9 mM; Vmaxapp (bCA-II [3]): 24.6 (µmol/min)^−1; Ki (bCA-II [3]): 11.3 ± 0.17 µM; Type of inhibition (hCA-II [4]): competitive inhibition; Kmapp (hCA-II [4]): 4.2 mM; Vmaxapp (hCA-II [4]): 25.3 (µmol/min)^−1; Ki (hCA-II [4]): 6.5 ± 0.19 µM | COc1cc(-c2c(F)cccc2F)ccc1O[C@H](C)Cn1cc(-c2ccc(F)cc2)nn1 [Compound 9o]
21 |  |  | 19.3 ± 0.2 | Inactive | Selectivity for hCA-II (hCA-II [2]): selective inhibitors of the hCA-II | COc1cc(-c2ccc(F)c(F)c2F)ccc1O[C@H](C)Cn1cc(-c2ccc(F)cc2)nn1 [Compound 9p]
22 | 17.8 ± 0.8 | Inactive |  |  |  | COc1cc(-c2ccc([N+](=O)[O-])cc2)ccc1O[C@H](C)Cn1cc(-c2ccc(C(F)(F)F)cc2)nn1 [Compound 9e]
23 | 12.3 ± 0.4 |  | 25.1 ± 0.4 |  |  | COC(=O)c1cn(C[C@@H](C)Oc2ccc(Br)cc2OC)nn1 [Compound 7d]
